# Assay results published in patent US12648983B2 (U.S. NUTRACEUTICALS, INC., priority 2021, dated 2026).
# Experiments:
# [1] = tested on: androgenic alopecia; conditions: 1 milligram per day, 24 months, 100 men; cited from earlier work
# [2] = tested on: hair growth; conditions: normal shaved mice, after about 20 days; cited from earlier work
# [3] = target: T1, 5α-Reductase Type 2 (Homo sapiens, UniProt P31213); assay: inhibition of 5α-Reductase Type 2 enzyme (Inhibition Experiments 1 and 2); type: biochemical
# T1 sequence (P31213 1-254): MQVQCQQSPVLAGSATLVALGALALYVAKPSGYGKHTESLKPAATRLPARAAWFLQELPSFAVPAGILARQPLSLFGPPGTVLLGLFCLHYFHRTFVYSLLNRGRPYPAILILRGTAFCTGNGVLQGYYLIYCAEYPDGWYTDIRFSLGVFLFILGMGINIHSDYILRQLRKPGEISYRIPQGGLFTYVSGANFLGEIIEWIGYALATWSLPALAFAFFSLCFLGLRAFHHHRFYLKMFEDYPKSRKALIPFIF
# Description: (§1) The different free fatty acids of medium and long saturated chains and long unsaturated chains are shown, together with esterified fatty acids, oxidized fatty acids, fatty alcohols, phytosterols, and other components. The magnitude of the activity is designated by “none,” “moderate” or “very active” (FIG. 3). The various constituents shown in the table of FIG. 2 are also shown and listed as free fatty acid molecules with: a) medium, saturated chains, b) long, saturated chains, and c) long unsaturated chains. There are esterified fatty acids, oxidized fatty acids, and fatty alcohols. These tables support other evidence that the five active free fatty acids for prostate and hair health are lauric, myristic, oleic, linoleic and linolenic free fatty acids.
# Data are shown in the graphs and bar charts of FIGS. 5 and 6 where data are reported as the effectiveness to inhibit enzyme activity (IC50). […]
# Inhibition Experiment 2 shown in FIG. 6 determined the possible impact of Permixon® product matrix (PEG) on an in vitro assay and the pegylated and conventional ultra-high purity supercritical CO2 extract having the PEG matrix (U4602-PEG) was compared to the commercially available Permixon® and the conventional unpegylated product (U4602) for their ability to inhibit the 5α-Reductase 2 enzyme. […]
# [4] = target: T2, 5α-Reductase Type 1 (Homo sapiens, UniProt P18405); assay: inhibition of 5α-Reductase Type 1 enzyme; type: biochemical
# T2 sequence (P18405 1-259): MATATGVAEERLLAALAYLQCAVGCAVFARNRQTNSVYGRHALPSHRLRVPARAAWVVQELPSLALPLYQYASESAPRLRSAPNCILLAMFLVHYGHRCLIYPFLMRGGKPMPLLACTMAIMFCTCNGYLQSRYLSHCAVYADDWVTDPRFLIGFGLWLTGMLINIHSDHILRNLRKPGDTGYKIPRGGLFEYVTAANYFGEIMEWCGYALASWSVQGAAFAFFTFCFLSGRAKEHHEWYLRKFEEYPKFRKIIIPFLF
# Description: as §1
# Reference is now made to FIGS. 7B and 7C showing the use of a supercritical CO2 extracted LSESr and Permixon®.
Compound,men who noted an improvement [1] [%],hair growth [2],effectiveness for 5α-Reductase-2 (in words) [3],effectiveness for 5α-Reductase-1 (in words) [4]
CC(C)(C)NC(=O)[C@H]1CC[C@H]2[C@@H]3CC[C@H]4NC(=O)C=C[C@]4(C)[C@H]3CC[C@]12C [finasteride],68,,,
CCCCC/C=C\C/C=C\CCCCCCCC(=O)O [linoleic acid],,about 100%,beneficial for both,
CCCCCCCC/C=C\CCCCCCCC(=O)O [oleic acid],,,not as much,especially effective
